In patent US11883526B2 (priority 2019, dated 2024):

Tested on: patients with treatment-resistant depression (TRD)
Experiment: Adverse events (Example 7)
Format: in vivo, human
Procedure: Adverse events were monitored throughout the study. Other safety assessments (i.e., laboratory tests, vital signs, physical examination) were performed at pre-specified time points. Vital signs, the Clinician Administered Dissociative States Scale (CADSS; Bremner, “Measurement of dissociative states with the clinician-administered dissociative states scale (CADSS)”, J. Traumatic Stress, 1998, 11(1):125-136), and the 4-item positive symptom subscale from the Brief Psychiatric Rating Scale (BPRS; Overall, “The Brief Psychiatric Rating Scale. Psychological Reports”, 1962, 10:799-812) were assessed pre-dose, at 40 minutes, and 2 hours post-dose.
Safety data were analyzed in Period 1, Period 2, double-blind, and open-label data sets, for all subjects receiving at least 1 dose of study medication.

## CN[C@]1(c2ccccc2Cl)CCCCC1=O [esketamine, (S)-2-(2-chlorophenyl)-2-(methylamino)cyclohexanone]
double-blind phase
  participants with adverse events leading to discontinuation of study drug: 5%
double-blind, 28 mg
  Dissociation, number of participants: 0
  Dissociative disorder, % of participants: (11) %
  Dissociative disorder, number of participants: 2
  Dizziness, % of participants: (21) %
  Dizziness, number of participants: 4
  Dysgeusia, % of participants: (11) %
  Dysgeusia, number of participants: 2
  Feeling abnormal, % of participants: (11) %
  Feeling abnormal, number of participants: 2
  Headache, % of participants: (32) %
  Headache, number of participants: 6
  Hypersomnia, % of participants: (11) %
  Hypersomnia, number of participants: 2
  Hypertension, number of participants: 0
  Hypoesthesia oral, % of participants: (5) %
  Hypoesthesia oral, number of participants: 1
  Insomnia, number of participants: 0
  Nasal discomfort, number of participants: 0
  Nausea, % of participants: (11) %
  Nausea, number of participants: 2
  Oropharyngeal pain, number of participants: 0
  Polyuria, number of participants: 0
  Sedation, % of participants: (5) %
  Sedation, number of participants: 1
  Throat irritation, % of participants: (5) %
  Throat irritation, number of participants: 1
  Total with events, % of participants: (58) %
  Total with events, number of participants: 11
  Tunnel vision, number of participants: 0
  Vertigo, % of participants: (11) %
  Vertigo, number of participants: 2
  Vision blurred, number of participants: 0
double-blind, 56 mg
  Dissociation, % of participants: (35) %
  Dissociation, number of participants: 7
  Dissociative disorder, % of participants: (5) %
  Dissociative disorder, number of participants: 1
  Dizziness, % of participants: (40) %
  Dizziness, number of participants: 8
  Dysgeusia, % of participants: (15) %
  Dysgeusia, number of participants: 3
  Feeling abnormal, % of participants: (5) %
  Feeling abnormal, number of participants: 1
  Headache, % of participants: (15) %
  Headache, number of participants: 3
  Hypersomnia, number of participants: 0
  Hypertension, % of participants: (10) %
  Hypertension, number of participants: 2
  Hypoesthesia oral, % of participants: (20) %
  Hypoesthesia oral, number of participants: 4
  Insomnia, % of participants: (10) %
  Insomnia, number of participants: 2
  Nasal discomfort, % of participants: (10) %
  Nasal discomfort, number of participants: 2
  Nausea, % of participants: (20) %
  Nausea, number of participants: 4
  Oropharyngeal pain, % of participants: (5) %
  Oropharyngeal pain, number of participants: 1
  Polyuria, % of participants: (10) %
  Polyuria, number of participants: 2
  Sedation, % of participants: (10) %
  Sedation, number of participants: 2
  Throat irritation, number of participants: 0
  Total with events, % of participants: (80) %
  Total with events, number of participants: 16
  Tunnel vision, number of participants: 0
  Vertigo, % of participants: (5) %
  Vertigo, number of participants: 1
  Vision blurred, number of participants: 0
double-blind, 84 mg
  Dissociation, % of participants: (24) %
  Dissociation, number of participants: 4
  Dissociative disorder, % of participants: (24) %
  Dissociative disorder, number of participants: 4
  Dizziness, % of participants: (47) %
  Dizziness, number of participants: 8
  Dysgeusia, % of participants: (29) %
  Dysgeusia, number of participants: 5
